Data as given in paper PMC7503370, “Cellular Signaling and Anti-Apoptotic Effects of Prolactin-Releasing Peptide and Its Analog on SH-SY5Y Cells” (International Journal of Molecular Sciences, 2020).
Numbered stars: 1 amine (or outer) side, 2 acyl side, 3 side chain; on linkers, the order of the positions; unused ones are H or OH. Side chains are listed from the residue outwards. Peptide text beside a SMILES is read from it. * marks the point of attachment. γGlu = O=C(O)[C@H](CCC(=O)[*:2])N[*:1]; Palmitoyl = CCCCCCCCCCCCCCCC(=O)*

What was measured:
Type in all cases: cell-based, human
[1] = system: p-m-Tor, p-GSK-3β, p-ERK, p-CREB in SH-SY5Y cells; assay: Western blotting with selective inhibitors of signaling pathways; conditions: insulin 1 × 10^−7 M, 37 °C, 8 min; for p-CREB after incubation with peptide, no inhibitor / p-ERK after incubation with peptide, no inhibitor / p-m-Tor (Ser2448) after application of peptide, no inhibitor: PrRP31 and palm^11-PrRP31 1 × 10^−5 M
Method: Immunoblots with PrRP31 and palm^11-PrRP31: (a) and insulin: (b) and their quantifications: (c). SH-SY5Y cells were incubated firstly with selective inhibitors for 2 min and then either with PrRP31 and its palmitoylated analog at a final concentration 1 × 10^−5 M, or with insulin in the final concentration 1 × 10^−7 M at 37 °C for 8 min, or alone in serum-free medium. Activated protein was normalized to loading control, GAPDH. Data are presented as the means ± SEM as a percentage of control cells treated with medium alone. Analysis is made between groups as shown in the graph by a Student’s t-test, * p < 0.5, ** p < 0.01, *** p < 0.001(each sample in triplicates).
(§1) Eight minutes of incubation was performed in a series of experiments with different exposure times (5, 10, 15, 30, and 60 min) to PrRP31 and its palmitoylated analog. Activation of analogs was strongest after 10 min. Then, the cells were treated with inhibitors of signaling pathways for 2 min, and analogs were added for 8 min. The time of exposure was set to 8 min to ensure that the incubation time for PrRP31 and its palmitoylated analog was the same. The controls and compounds were tested in triplicate in three independent experiments. The PI3K/Akt pathway is one of the main signaling pathways of insulin; therefore, insulin was used as a positive control. Scrambled peptide was used as a negative control. Activation is expressed as the ratio of the activated protein to the total amount of the protein. GAPDH was used as a loading control.
For further research, inhibitors of signaling pathways were used. The growth medium was exchanged for serum-free DMEM 16 h before the experiment. On the day of the experiment, cells were incubated for 2 min with rapamycin, SB216736 or U0126 at a final concentration of 1 × 10^−6 M; then, PrRP31, palm^11-PrRP31 or scrambled peptide at a final concentration of 1 × 10^−5 M or insulin at a concentration of 1 × 10^−7 M was added for 8 min. The plates were stored at 37 °C. The controls and compounds were tested in triplicate.

[2] = system: PI3K/Akt signaling pathway in SH-SY5Y cells; assay: Western blotting of PI3K/Akt signaling pathway after 8 min incubation; conditions: 1 × 10^-5 M, 37 °C, vs control cells (medium alone), normalized to GAPDH, n = 3, triplicates
Method: Figure 1 Prolactin-releasing peptide 31 (PrRP31) and palm^11-PrRP31 increased phosphoinositide-3 kinase (PI3K/Akt) signaling pathway in SH-SY5Y cells. Immunoblots: (a) and their quantifications: (b). SH-SY5Y cells were incubated either with PrRP31 and its palmitoylated analog and scrambled at a final concentration 1 × 10^-5 M, or with insulin at the final concentration 1 × 10^−7 M at 37 °C for 8 min, or medium alone (control). Activation was expressed as the ratio of the activated protein to the total amount of the protein, both normalized to loading control, glyceraldehyde 3-phosphate dehydrogenase (GAPDH). Data are presented as the means ± SEM as a percentage of control cells analyzed by one-way ANOVA followed by the Dunnett post hoc test, * p < 0.5, ** p < 0.01, **** p < 0.0001 (n = 3, each sample in triplicates).
(§2) For the investigation of the molecular mechanism of PrRP31 and its analog in the cells, signaling pathways were studied by Western blotting (WB). The cells were cultured in 6-well plates at a density of 800,000 cells per well. Growth medium was exchanged for serum-free DMEM 16 h before an experiment, and then, the cells were incubated with PrRP31, palm^11-PrRP31, or scrambled peptide at a final concentration of 1 × 10^−5 M or insulin at a concentration of 1 × 10^−7 M at 37 °C for 8 min. The cells were rapidly cooled on ice and lysed in 400 µl of Laemmli sample buffer (62.5 mM Tris-HCl with pH 6.8, 2% SDS, 10% glycerol, 0.01% bromophenol blue, 5% mercaptoethanol, 50 mM NaF, and 1 mM Na3VO4) and stored at −20 °C. Afterward, the cell lysates were analyzed by WB. SDS-electrophoresis and WB were carried out using a Criterion system with a 26-well 4−15% Criterion^TM TGX^TM Precast Midi Protein Gel (Bio-Rad, Hercules, CA, USA) at a constant voltage of 200 V or 100 V, respectively.
(§3) Subsequently, the membranes were incubated overnight with primary antibody (Ab) at 4 °C, according to the manufacturer´s instructions (Table 2). The next day, the membranes were incubated with an HRP-linked secondary antibody for 1 h at room temperature. Chemiluminescence was visualized with a ChemiDoc^TM System (Bio-Rad). Band intensities were normalized using glyceraldehyde 3-phosphate dehydrogenase (GAPDH) as an internal loading control.
as §1

[3] = system: Tau protein phosphorylation in SH-SY5Y cells; assay: Western blotting of Tau phosphorylation in MG-stressed cells; conditions: 4 h pretreatment 1 × 10^−5 M, then 0.6 mM MG 16 h, vs MG; for attenuation of MG-increased Tau phosphorylation at Ser396: normalized to GAPDH
Method: Figure 8 PrRP31 and palm^11-PrRP31 attenuate Tau hyperphosphorylation at the epitope Ser396 in SH-SY5Y. Immunoblots with: (a) and their quantifications: (b). SH-SY5Y cells were pretreated with PrRP31 and palm^11-PrRP31 at a concentration of 1 × 10^−5 M for 4 h and then stressed with 0.6 mM MG for 16 h. Activation was expressed as the ratio of the activated protein to the total amount of the protein, both normalized to loading control, GAPDH. Data are presented as the means ± SEM as a percentage of control cells treated with medium alone. Analysis is made vs. MG by a Student’s t-test, * p < 0.5, ** p < 0.01 (each sample replicate in triplicate).
as §2, §3
For analysis of the molecular mechanism during MG stress, the growth medium was exchanged for serum-free DMEM 16 h before the experiment. The cells were pretreated with 1 × 10^−5 M PrRP31 or palm^11-PrRP31 for 4 h; then, MG was added to a final concentration of 0.6 mM, and the cells were incubated at 37 °C for 16 h. The controls and compounds were tested in triplicate.

[4] = normalized to GAPDH, triplicates

With `CC[C@H](C)[C@H](NC(=O)CNC(=O)[C@H](CCCNC(=N)N)NC(=O)[C@H](CO)NC(=O)[C@H](C)NC(=O)[C@H](Cc1ccc(O)cc1)NC(=O)[C@H](Cc1c[nH]c2ccccc12)NC(=O)[C@H](C)NC(=O)[C@@H]1CCCN1C(=O)[C@H](CC(N)=O)NC(=O)[C@@H](NC(=O)[C@H](CC(=O)O)NC(=O)[C@@H]1CCCN1C(=O)[C@@H](NC(=O)[C@H](CCCNC(=N)N)NC(=O)[C@@H](NC(=O)[C@H](CCC(=O)O)NC(=O)[C@H](CCSC)NC(=O)[C@H](CO)NC(=O)[C@H](Cc1c[nH]cn1)NC(=O)[C@H](CCCNC(=N)N)NC(=O)[C@H](Cc1c[nH]cn1)NC(=O)[C@@H](NC(=O)[C@H](CCCNC(=N)N)NC(=O)[C@@H](N)CO)[C@@H](C)O)[C@@H](C)CC)[C@@H](C)O)[C@@H](C)CC)C(=O)N[C@@H](CCCNC(=N)N)C(=O)N1CCC[C@H]1C(=O)N[C@H](C(=O)NCC(=O)N[C@@H](CCCNC(=N)N)C(=O)N[C@@H](Cc1ccccc1)C(N)=O)C(C)C` [PrRP31] the “p-CREB after incubation with peptide, no inhibitor” value [1] was “increased”, the “p-ERK after incubation with peptide, no inhibitor” value [1] was “increased” and the “p-m-Tor (Ser2448) after application of peptide, no inhibitor” value [1, 4] was “significantly increased”. The “increase of the level of p-Akt (Ser473)/Akt” value [2] was 53%, the “increase of the level of p-GSK3β (inhibitory Ser9)/GSK3β” value [2] was 41% and the “increase of the level of p-m-Tor (Ser2448)/m-Tor” value [2] was 22%. The “Tau phosphorylation at Ser198/199/202 (Tau 1)/Tau 5 induced by MG, effect of pretreatment” value [3] was “tended to decrease” and the “attenuation of MG-increased Tau phosphorylation at Ser396” value ([3]; triplicates) was 46%.

For `CCCCCCCCCCCCCCCC(=O)N[C@@H](CCC(=O)NCCCC[C@H](NC(=O)[C@@H](NC(=O)[C@H](CCC(=O)O)NC(=O)[C@H](CCSC)NC(=O)[C@H](CO)NC(=O)[C@H](Cc1c[nH]cn1)NC(=O)[C@H](CCCNC(=N)N)NC(=O)[C@H](Cc1c[nH]cn1)NC(=O)[C@@H](NC(=O)[C@H](CCCNC(=N)N)NC(=O)[C@@H](N)CO)[C@@H](C)O)[C@@H](C)CC)C(=O)N[C@H](C(=O)N1CCC[C@H]1C(=O)N[C@@H](CC(=O)O)C(=O)N[C@H](C(=O)N[C@@H](CC(N)=O)C(=O)N1CCC[C@H]1C(=O)N[C@@H](C)C(=O)N[C@@H](Cc1c[nH]c2ccccc12)C(=O)N[C@@H](Cc1ccc(O)cc1)C(=O)N[C@@H](C)C(=O)N[C@@H](CO)C(=O)N[C@@H](CCCNC(=N)N)C(=O)NCC(=O)N[C@H](C(=O)N[C@@H](CCCNC(=N)N)C(=O)N1CCC[C@H]1C(=O)N[C@H](C(=O)NCC(=O)N[C@@H](CCCNC(=N)N)C(=O)N[C@@H](Cc1ccccc1)C(N)=O)C(C)C)[C@@H](C)CC)[C@@H](C)CC)[C@@H](C)O)C(=O)O` [palm^11-PrRP31] (H-SRTHRHSMEIK([γGlu-Palmitoyl])TPDINPAWYASRGIRPVGRF-NH2; N-terminus assumed), the “p-CREB after incubation with peptide, no inhibitor” value [1] was “increased”, the “p-ERK after incubation with peptide, no inhibitor” value [1] was “increased” and the “p-m-Tor (Ser2448) after application of peptide, no inhibitor” value [1, 4] was “significantly increased”. The “p-GSK-3β (Ser9) after incubation with peptide, no inhibitor” value ([1]; palm^11-PrRP31 1 × 10^−5 M, normalized to GAPDH, triplicates) was “slight increase”, the “increase of the level of p-Akt (Ser473)/Akt” value [2] was 48% and the “increase of the level of p-Akt (Thr308)/Akt” value [2] was 36%. The “increase of the level of p-GSK3β (inhibitory Ser9)/GSK3β” value [2] was 85%, the “increase of the level of p-PDK1 (Ser241)/PDK1” value [2] was 20% and the “increase of the level of p-m-Tor (Ser2448)/m-Tor” value [2] was 22%. The “attenuation of MG-increased Tau phosphorylation at Ser396” value ([3]; triplicates) was 32% and the “increase in unphosphorylated Tau (Tau 1 antibody, Ser198/199/202)/Tau 5” value ([3]; triplicates) was 32%.
